Experimental findings from patent US9751869B2, “LXR modulators” (BRISTOL-MYERS SQUIBB COMPANY, priority 2013, dated 2017) are described below.

The term EC50 denotes the concentration giving half of the maximal effect.

For this assay, the target named is T1, LXRβ (Homo sapiens, UniProt P55055).
T1 construct: Co-transfection expression plasmids, comprising full-length LXRα (pCMX-h LXRα or LXRβ (pCMX-hLXRβ)); expressed in transfected cells; host or cells: CV-1 African green monkey kidney cells, transient transfection with pCMX-hLXRβ
T1 sequence (P55055 1-460): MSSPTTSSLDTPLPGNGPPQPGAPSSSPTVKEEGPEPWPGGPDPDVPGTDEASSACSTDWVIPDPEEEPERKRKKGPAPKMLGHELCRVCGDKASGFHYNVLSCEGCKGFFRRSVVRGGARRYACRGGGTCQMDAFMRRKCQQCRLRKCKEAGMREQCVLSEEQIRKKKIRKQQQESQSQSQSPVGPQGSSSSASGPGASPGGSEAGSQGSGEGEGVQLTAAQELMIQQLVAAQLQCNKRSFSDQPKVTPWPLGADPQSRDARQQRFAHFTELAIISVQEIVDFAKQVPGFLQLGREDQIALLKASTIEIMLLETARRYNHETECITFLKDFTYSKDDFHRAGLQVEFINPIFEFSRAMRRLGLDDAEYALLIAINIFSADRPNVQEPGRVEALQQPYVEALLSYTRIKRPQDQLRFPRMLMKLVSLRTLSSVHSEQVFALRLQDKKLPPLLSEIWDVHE
T1 sequence (P19793 1-462 partner): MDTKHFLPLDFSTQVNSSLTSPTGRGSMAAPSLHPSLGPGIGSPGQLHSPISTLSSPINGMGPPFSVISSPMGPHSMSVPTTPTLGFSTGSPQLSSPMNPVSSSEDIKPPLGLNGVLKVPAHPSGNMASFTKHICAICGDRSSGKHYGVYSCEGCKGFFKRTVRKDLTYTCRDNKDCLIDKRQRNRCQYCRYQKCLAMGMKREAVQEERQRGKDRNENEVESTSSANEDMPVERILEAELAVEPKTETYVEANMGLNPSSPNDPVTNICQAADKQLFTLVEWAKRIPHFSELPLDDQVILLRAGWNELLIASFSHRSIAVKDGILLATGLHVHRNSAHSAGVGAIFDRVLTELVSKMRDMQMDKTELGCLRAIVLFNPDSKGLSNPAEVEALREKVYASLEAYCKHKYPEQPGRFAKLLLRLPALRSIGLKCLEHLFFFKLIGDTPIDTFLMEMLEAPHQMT
The assay is described as follows: LXR/LXRE co-transfection assay (luciferase reporter) in CV-1 cells, LXRβ. Type of assay: cell-based. The conditions noted are these: for EC50: CV-1 cells transfected with pCMX-hLXRβ and LXREx1-Tk-Luciferase, 20 hours incubation, read-out: LXRbeta agonism EC50; for Emax: CV-1 cells, relative to maximum response of high control N-(3-((4-fluorophenyl)-(naphthalene-2-sulfonyl)amino)propyl)-2,2-dimethylpropionamide, read-out: LXRbeta % EFFICACY
The method in brief:
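CV-1 cells transiently co-transfected with full-length human LXRβ, LXRE-Tk-luciferase reporter and β-galactosidase control, then exposed to compound (≤0.5% DMSO) for 20 h at 37 °C before luminescence read. EC50 from 10-point, half-log dose curves; efficacy relative to the sulfonamide high control, means of 2–3 experiments.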
A general note: In a reporter assay the amount or activity of a reporter protein is the signal.

Regarding `Cc1nc(-c2ccc3c(c2)OC(F)(F)O3)c(-c2cc(-c3cc(F)c(CO)c(S(C)(=O)=O)c3)ccc2-c2cc(C(F)(F)c3nnco3)nn2C)o1` [Example 51, (4′-(3-(difluoro(1,3,4-oxadiazol-2-yl)methyl)-1-methyl-1H-pyrazol-5-yl)-3′-(4-(2,2-difluorobenzo[d][1,3]dioxol-5-yl)-2-methyloxazol-5-yl)-3-fluoro-5-(methylsulfonyl)biphenyl-4-yl)methanol], the EC50 came to 7 nM and the Emax is 73%.
For the molecule `Cc1nc(-c2ccc3c(c2)OC(F)(F)O3)c(-c2cc(-c3cc(F)c(CO)c(S(C)(=O)=O)c3)ccc2-c2cc(C(F)(F)c3nnc[nH]3)nn2C)o1` [Example 52, (4′-(3-(difluoro(4H-1,2,4-triazol-3-yl)methyl)-1-methyl-1H-pyrazol-5-yl)-3′-(4-(2,2-difluorobenzo[d][1,3]dioxol-5-yl)-2-methyloxazol-5-yl)-3-fluoro-5-(methylsulfonyl)biphenyl-4-yl)methanol], the EC50 came to 2520 nM and the Emax turned out to be 30%.
In the case of `Cc1nc(-c2ccc(OC(F)(F)F)cc2)c(-c2cc(-c3cccc(S(C)(=O)=O)c3)ccc2-c2cc(C(F)(F)F)nn2C)o1` [Example 53, 2-methyl-5-(4-(1-methyl-3-(trifluoromethyl)-1H-pyrazol-5-yl)-3′-(methylsulfonyl)biphenyl-3-yl)-4-(4-(trifluoromethoxy)phenyl)Oxazole], the EC50 came to 46 nM and the Emax is 94%.
As for `Cc1nc(-c2ccc3c(c2)OC(F)(F)O3)c(-c2cc(-c3cccc(S(C)(=O)=O)c3)ccc2-c2cc(C(C)(C)O)nn2C)o1` [Example 54, 2-(5-(3-(4-(2,2-difluorobenzo[d][1,3]dioxol-5-yl)-2-methyloxazol-5-yl)-3′-(methylsulfonyl)biphenyl-4-yl)-1-methyl-1H-pyrazol-3-yl)propan-2-ol], the EC50 stood at 297 nM and the Emax turned out to be 53%.
For `Cc1nc(-c2ccc3c(c2)OC(F)(F)O3)c(-c2cc(-c3cc(F)c(CO)c(S(C)(=O)=O)c3)ccc2-c2cc(C(=O)NC(C)(C)C#N)nn2C)o1` [Example 55, N-(2-cyanopropan-2-yl)-5-(3-(4-(2,2-difluorobenzo[d][1,3]dioxol-5-yl)-2-methyloxazol-5-yl)-3′-fluoro-4′-(hydroxymethyl)-5′-(methylsulfonyl)biphenyl-4-yl)-1-methyl-1H-pyrazole-3-carboxamide], the EC50 worked out at 761 nM and the Emax came to 24%.
For `Cc1nc(-c2ccc3c(c2)OC(F)(F)O3)c(-c2cc(-c3cc(F)c(CO)c(S(C)(=O)=O)c3)ccc2-c2cc(C(N)=O)nn2C)o1` [Example 56, 5-(3-(4-(2,2-difluorobenzo[d][1,3]dioxol-5-yl)-2-methyloxazol-5-yl)-3′-fluoro-4′-(hydroxymethyl)-5′-(methylsulfonyl)biphenyl-4-yl)-1-methyl-1H-pyrazole-3-carboxamide], in that order: 1100 nM and 35%.
In the same order, the values of `Cc1nc(-c2ccc3c(c2)OC(F)(F)O3)c(-c2cc(-c3cc(F)c(CO)c(S(C)(=O)=O)c3)ccc2-c2cc(-c3cnco3)nn2C)o1` [Example 57, (3′-(4-(2,2-difluorobenzo[d][1,3]dioxol-5-yl)-2-methyloxazol-5-yl)-3-fluoro-4′-(1-methyl-3-(oxazol-5-yl)-1H-pyrazol-5-yl)-5-(methylsulfonyl)-[1,1′-biphenyl]-4-yl)methanol] are 158 nM and 18%.
`Cc1nc(-c2ccc3c(c2)OC(F)(F)O3)c(-c2cc(-c3cc(F)c(CO)c(S(C)(=O)=O)c3)ccc2-c2cc(CC#N)nn2C)o1` [Example 58, 2-(5-(3-(4-(2,2-difluorobenzo[d][1,3]dioxol-5-yl)-2-methyloxazol-5-yl)-3′-fluoro-4′-(hydroxymethyl)-5′-(methylsulfonyl)-[1,1′-biphenyl]-4-yl)-1-methyl-1H-pyrazol-3-yl)acetonitrile]: the EC50 was determined as 18 nM and the Emax was determined as 94%.
`Cc1nc(-c2ccc3c(c2)OC(F)(F)O3)c(-c2cc(-c3cc(F)c(CO)c(S(C)(=O)=O)c3)ccc2-c2cc([C@H](C)C#N)nn2C)o1` [Example 59, (S)-2-(5-(3-(4-(2,2-difluorobenzo[d][1,3]dioxol-5-yl)-2-methyloxazol-5-yl)-3′-fluoro-4′-(hydroxymethyl)-5′-(methylsulfonyl)-[1,1′-biphenyl]-4-yl)-1-methyl-1H-pyrazol-3-yl)propanenitrile]: the EC50 amounted to 6 nM and the Emax was 76%.
As to `Cc1nc(-c2ccc3c(c2)OC(F)(F)O3)c(-c2cc(-c3cc(F)c(CO)c(S(C)(=O)=O)c3)ccc2-c2cc(C3(C#N)CC3)nn2C)o1` [Example 60, 1-(5-(3-(4-(2,2-difluorobenzo[d][1,3]dioxol-5-yl)-2-methyloxazol-5-yl)-3′-fluoro-4′-(hydroxymethyl)-5′-(methylsulfonyl)-[1,1′-biphenyl]-4-yl)-1-methyl-1H-pyrazol-3-yl)cyclopropanecarbonitrile], the EC50 was 7 nM and the Emax amounted to 85%.
Take `Cc1nc(-c2ccc3c(c2)OC(F)(F)O3)c(-c2cc(-c3cc(F)c(CO)c(S(C)(=O)=O)c3)ccc2-c2cc(CC(N)=O)nn2C)o1` [Example 61, 2-(5-(3-(4-(2,2-difluorobenzo[d][1,3]dioxol-5-yl)-2-methyloxazol-5-yl)-3′-fluoro-4′-(hydroxymethyl)-5′-(methylsulfonyl)-[1,1′-biphenyl]-4-yl)-1-methyl-1H-pyrazol-3-yl)acetamide]: the EC50 is 592 nM and the Emax worked out at 40%.
With `Cc1nc(-c2cc(-c3cc(F)c(CO)c(S(C)(=O)=O)c3)ccc2-c2cc(C(C)(C)CO)nn2C)c(-c2ccc3c(c2)OC(F)(F)O3)o1` [Example 62, 2-(5-(3-(5-(2,2-difluorobenzo[d][1,3]dioxol-5-yl)-2-methyloxazol-4-yl)-3′-fluoro-4′-(hydroxymethyl)-5′-(methylsulfonyl)biphenyl-4-yl)-1-methyl-1H-pyrazol-3-yl)-2-methylpropan-1-ol], the EC50 amounted to 30 nM and the Emax came to 72%.
Regarding `Cc1nc(-c2cc(-c3cc(F)c(CO)c(S(C)(=O)=O)c3)ccc2-c2cc(C(C)(C)C(N)=O)nn2C)c(-c2ccc3c(c2)OC(F)(F)O3)o1` [Example 63, 2-(5-(3-(5-(2,2-difluorobenzo[d][1,3]dioxol-5-yl)-2-methyloxazol-4-yl)-3′-fluoro-4′-(hydroxymethyl)-5′-(methylsulfonyl)biphenyl-4-yl)-1-methyl-1H-pyrazol-3-yl)-2-methylpropanamide], the EC50 was 55 nM and the Emax turned out to be 33%.
In the same order, the values of `Cc1nc(-c2cc(-c3cc(F)c(CO)c(S(C)(=O)=O)c3)ccc2-c2cc(C(C)(C)C(C)(C)O)nn2C)c(-c2ccc3c(c2)OC(F)(F)O3)o1` [Example 64, 3-(5-(3-(5-(2,2-difluorobenzo[d][1,3]dioxol-5-yl)-2-methyloxazol-4-yl)-3′-fluoro-4′-(hydroxymethyl)-5′-(methylsulfonyl)biphenyl-4-yl)-1-methyl-1H-pyrazol-3-yl)-2,3-dimethylbutan-2-ol] are 24 nM and 42%.
As to `Cc1nc(-c2ccc3c(c2)OC(F)(F)O3)c(-c2cc(-c3cc(F)c(CO)c(S(C)(=O)=O)c3)ccc2-c2cc(C(C)(C)C(N)=O)nn2C)o1` [Example 65, 2-(5-(3-(4-(2,2-difluorobenzo[d][1,3]dioxol-5-yl)-2-methyloxazol-5-yl)-3′-fluoro-4′-(hydroxymethyl)-5′-(methylsulfonyl)biphenyl-4-yl)-1-methyl-1H-pyrazol-3-yl)-2-methylpropanamide], the EC50 was determined as 67 nM and the Emax is 55%.
Regarding `Cc1nc(-c2ccc3c(c2)OC(F)(F)O3)c(-c2cc(-c3cc(F)c(CO)c(S(C)(=O)=O)c3)ccc2-c2cc(C(C)(C)C(C)(C)O)nn2C)o1` [Example 66, 3-(5-(3-(4-(2,2-difluorobenzo[d][1,3]dioxol-5-yl)-2-methyloxazol-5-yl)-3′-fluoro-4′-(hydroxymethyl)-5′-(methylsulfonyl)biphenyl-4-yl)-1-methyl-1H-pyrazol-3-yl)-2,3-dimethylbutan-2-ol], the EC50 came to 27 nM and the Emax was 27%.
